# Earlier results in patent US20260015582A1, “METHODS OF T CELL DIFFERENTIATION AND COMPOSITIONS THEREOF” (THE CHILDREN'S MEDICAL CENTER CORPORATION, priority 2022, published 2026).
# Assays:
# JMJD2E = biological target: T1, JMJD2E (Homo sapiens, UniProt B2RXH2); details: ECSD enzymatic assays
# T1 sequence (B2RXH2 1-506): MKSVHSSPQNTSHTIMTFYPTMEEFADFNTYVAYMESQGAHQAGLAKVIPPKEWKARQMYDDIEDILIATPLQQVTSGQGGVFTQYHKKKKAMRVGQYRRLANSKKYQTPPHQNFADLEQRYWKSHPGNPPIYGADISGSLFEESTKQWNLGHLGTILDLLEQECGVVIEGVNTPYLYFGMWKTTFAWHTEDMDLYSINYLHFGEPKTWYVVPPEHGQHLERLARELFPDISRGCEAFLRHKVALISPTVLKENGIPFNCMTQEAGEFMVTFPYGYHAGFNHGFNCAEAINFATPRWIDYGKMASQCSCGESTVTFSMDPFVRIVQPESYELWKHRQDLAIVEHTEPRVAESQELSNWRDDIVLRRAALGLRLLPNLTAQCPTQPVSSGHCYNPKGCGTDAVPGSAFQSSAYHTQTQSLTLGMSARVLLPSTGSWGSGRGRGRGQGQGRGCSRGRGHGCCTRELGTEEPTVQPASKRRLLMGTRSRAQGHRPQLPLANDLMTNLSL
# DIM5 = biological target: T2, DIM5 (Neurospora crassa, UniProt Q8X225)
# T2 sequence (Q8X225 1-331): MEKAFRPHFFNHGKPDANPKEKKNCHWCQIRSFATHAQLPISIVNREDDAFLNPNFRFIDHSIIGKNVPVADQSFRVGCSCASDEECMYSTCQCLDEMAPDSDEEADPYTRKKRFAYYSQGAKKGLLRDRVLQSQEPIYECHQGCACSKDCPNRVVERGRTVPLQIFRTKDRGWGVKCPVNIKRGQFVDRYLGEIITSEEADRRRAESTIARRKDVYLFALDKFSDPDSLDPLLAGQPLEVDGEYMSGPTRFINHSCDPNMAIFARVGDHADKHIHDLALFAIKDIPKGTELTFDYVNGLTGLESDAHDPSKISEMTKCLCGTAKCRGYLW
# HMT SU(VAR)3-9 = HMT SU(VAR)3-9 (Drosophila melanogaster, UniProt P45975)
# Chain of HMT SU(VAR)3-9 (P45975 with tags, fused parts or gaps): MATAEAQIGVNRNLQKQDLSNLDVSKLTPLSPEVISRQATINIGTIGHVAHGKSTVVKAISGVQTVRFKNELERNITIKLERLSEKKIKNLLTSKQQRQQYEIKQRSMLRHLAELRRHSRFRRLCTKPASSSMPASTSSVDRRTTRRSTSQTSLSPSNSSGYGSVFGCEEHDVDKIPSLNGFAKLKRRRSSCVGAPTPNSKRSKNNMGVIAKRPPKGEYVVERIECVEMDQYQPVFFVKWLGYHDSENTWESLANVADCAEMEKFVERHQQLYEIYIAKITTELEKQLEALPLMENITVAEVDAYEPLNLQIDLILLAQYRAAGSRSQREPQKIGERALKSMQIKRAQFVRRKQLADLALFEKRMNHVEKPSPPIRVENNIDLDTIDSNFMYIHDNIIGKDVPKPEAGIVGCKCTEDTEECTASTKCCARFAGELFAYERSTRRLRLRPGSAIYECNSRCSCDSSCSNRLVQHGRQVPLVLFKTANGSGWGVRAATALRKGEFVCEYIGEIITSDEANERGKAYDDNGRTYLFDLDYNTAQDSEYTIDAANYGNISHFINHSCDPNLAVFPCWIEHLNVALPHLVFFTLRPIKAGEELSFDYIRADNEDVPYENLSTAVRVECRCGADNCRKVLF
# Lys4-specific SET7/9 = biological target: T3, Lys4-specific SET7/9 (Homo sapiens, UniProt Q8WTS6)
# T3 sequence (Q8WTS6 1-366): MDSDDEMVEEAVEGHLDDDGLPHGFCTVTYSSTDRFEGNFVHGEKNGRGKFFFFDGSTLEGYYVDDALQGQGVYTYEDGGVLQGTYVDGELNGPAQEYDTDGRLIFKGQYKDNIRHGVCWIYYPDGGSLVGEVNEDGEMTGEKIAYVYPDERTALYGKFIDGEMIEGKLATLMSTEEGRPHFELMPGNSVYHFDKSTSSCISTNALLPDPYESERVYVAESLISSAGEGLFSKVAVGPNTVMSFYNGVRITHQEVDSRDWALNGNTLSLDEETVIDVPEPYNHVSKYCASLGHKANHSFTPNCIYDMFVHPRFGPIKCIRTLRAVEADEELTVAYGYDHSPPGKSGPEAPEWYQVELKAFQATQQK
# [1] = biological target: T4, class III isoenzyme SIRT1 (Homo sapiens, UniProt Q96EB6)
# T4 sequence (Q96EB6 1-747): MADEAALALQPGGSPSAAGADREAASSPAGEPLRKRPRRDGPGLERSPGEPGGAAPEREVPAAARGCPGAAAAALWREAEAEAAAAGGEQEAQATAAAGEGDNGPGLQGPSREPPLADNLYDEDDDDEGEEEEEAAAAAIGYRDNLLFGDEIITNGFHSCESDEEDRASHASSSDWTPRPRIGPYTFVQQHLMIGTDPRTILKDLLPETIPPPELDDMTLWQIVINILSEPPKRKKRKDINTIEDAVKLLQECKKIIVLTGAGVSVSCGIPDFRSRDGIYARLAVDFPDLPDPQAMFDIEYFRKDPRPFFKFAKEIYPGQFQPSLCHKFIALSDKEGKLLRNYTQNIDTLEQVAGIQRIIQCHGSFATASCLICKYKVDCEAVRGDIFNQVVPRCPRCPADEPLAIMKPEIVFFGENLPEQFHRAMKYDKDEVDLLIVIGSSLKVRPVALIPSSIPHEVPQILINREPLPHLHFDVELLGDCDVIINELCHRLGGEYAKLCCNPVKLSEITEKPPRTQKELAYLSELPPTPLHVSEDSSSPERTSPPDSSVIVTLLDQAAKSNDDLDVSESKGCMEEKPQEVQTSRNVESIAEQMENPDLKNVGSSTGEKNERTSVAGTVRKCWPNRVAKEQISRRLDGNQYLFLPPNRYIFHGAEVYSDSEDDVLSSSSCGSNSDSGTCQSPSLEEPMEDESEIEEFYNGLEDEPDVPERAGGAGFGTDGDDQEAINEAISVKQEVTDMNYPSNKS
# G9a/GLP = details: SAM-competitive manner
compound,measurement,setting,value
COc1cc2c(NC3CCN(C)CC3)nc(N3CCCN(C)CC3)nc2cc1OCCOCCN(C)C [UNC0321],selectivity over JMJD2E,JMJD2E,> 1000 fold
same,IC50,JMJD2E; inactive,> 40 µM
CN1C(=O)C23CC4([C@]56C[C@@]78SS[C@@](CO)(C(=O)N7[C@H]5Nc5ccccc56)N(C)C8=O)c5ccccc5NC4N2C(=O)[C@]1(CO)SS3 (stereo partly shown) [Chaetocin],IC50,Lys20-specific PRSET7,> 90 µM
same,IC50,DIM5,3 µM
same,IC50,HMT SU(VAR)3-9,0.8 µM
same,IC50,Lys27-specific EZH2,> 90 µM
same,IC50,G9a,2.5 µM
same,IC50,Lys4-specific SET7/9,> 90 µM
"CCCCc1nc2cc(/C=C/C(=O)NO)ccc2n1CCN(CC)CC [SB939, Pracinostat]",activity against the class III isoenzyme SIRT1,[1],no activity
COc1ccc(C(=O)Oc2ccc(CCn3c(NC(=O)c4ccc(C(F)(F)F)cc4)nc4cc(C(=O)O)ccc43)cc2)cc1 [BIX-01338],G9a/GLP effective conc.,G9a/GLP,G9a/GLP effective conc. = 15 μM
